This is an account of results in patent US20230404893A1, “Oral Care Compositions Comprising Ascorbic Acid Derivatives” (Colgate-Palmolive Company, priority 2020, published 2023).

A short description of data set [1]: Color of toothpaste samples measured with a spectrophotometer (L*, a*, b*). Type of data set: physicochemical. As to conditions: basic toothpaste formulas with sodium ascorbyl phosphate, with/without sodium stearate. As for the experimental part:
To overcome this color issue, surfactants are added to the basic toothpaste formulas in combination with sodium ascorbyl phosphate. Table 15 describes one basic toothpaste formula, to which sodium ascorbyl phosphate and surfactants are added. Three surfactants, sodium stearate, sodium cocoyl glutamate and sodium lauryl isoethionate, are screened, alone and in different combinations with/without sodium ascorbyl phosphate.
Samples of basic toothpaste G with different amounts and combinations of surfactants with/without sodium ascorbyl phosphate are prepared and evaluated for color, as shown in Table 16. A high “b*” value indicates a more yellow color while a lower value indicates a more blue color. A high “L*” value indicates a whiter sample compared to a low “L*” value which indicates a darker sample. As can be observed in Table 16 samples without sodium stearate that incorporate sodium ascorbyl phosphate tends to increase the “b*” value, indicating a more yellow color. Samples that incorporate sodium stearate with sodium ascorbyl phosphate tend to have a relative reduction in “b*” value, indicating less yellow color.

Data set [2] in a line: Standard brushing study, Toothpaste F samples (starting L 57.3-66.3, twelve teeth per cell). Also on record: species or system bovine. As to conditions: ΔW data of Table 14, Toothpaste F. As for the experimental part: Bovine enamel teeth mounted individually in resin blocks are purchased and brushed with an abrasive paste until initial “L” values were 56-68. Trays are prepared for the brushing machine and each tray consists of six teeth mounted using 3D printed trays. Baseline optical measurements of the bovine teeth are taken using a spectrophotometer and the trays are loaded onto the brushing machine.
Toothbrushes are placed on the brushing machine by removing the head of a manual toothbrush from its handle. Slurry composed of 1:1 ratio by weight of test toothpaste to artificial saliva is prepared and added to each tray. The teeth are brushed for two minutes with 250 grams of pressure at 120 strokes per minute. After brushing is stopped, the slurry is removed and residual toothpaste is rinsed away with deionized water. The brushing treatment is repeated a total of 14 times and measurements are taken every 2 cycles. The teeth are then gently blotted with a paper towel to remove excess liquid and measurements are taken with the spectrophotometer. […] The “L”, “a”, and “b” values are determined and are used to calculate the change in whiteness “ΔW” for each tooth after the treatment. […]

With `O=C1O[C@H]([C@@H](O)CO)C([O-])=C1OP(=O)([O-])[O-].[Na+].[Na+].[Na+]` [sodium ascorbyl phosphate], in data set [1], the “color of the toothpaste (in words)” value is listed as “observable yellow color”. In data set [2], the “whitening efficacy (in words)” value is given as “significant effect on whitening efficacy”.
